3 compounds from patent US20100216791A1, “PYRIDINYLQUINAZOLINAMINE DERIVATIVES AND THEIR USE AS B-RAF INHIBITORS” (ASTRAZENECA, priority 2006, published 2010) can be followed below.

SMILES strings stand for the structures. Like-named read-outs stand apart in the source and are kept apart here.

The target of the assay is Mutant B-Raf (V600E) enzyme (MT B-Raf) (Homo sapiens, UniProt P15056, V600E). Put plainly: biochemical.
Where [1] appears, read: B-Raf Alpha screen comparable to the described assay, phosphorylation of biotinylated HIS-MEK-AVI, results may be an average of two or more results.

Sequence of Mutant B-Raf (V600E) enzyme (MT B-Raf) (P15056 whole entry V600E): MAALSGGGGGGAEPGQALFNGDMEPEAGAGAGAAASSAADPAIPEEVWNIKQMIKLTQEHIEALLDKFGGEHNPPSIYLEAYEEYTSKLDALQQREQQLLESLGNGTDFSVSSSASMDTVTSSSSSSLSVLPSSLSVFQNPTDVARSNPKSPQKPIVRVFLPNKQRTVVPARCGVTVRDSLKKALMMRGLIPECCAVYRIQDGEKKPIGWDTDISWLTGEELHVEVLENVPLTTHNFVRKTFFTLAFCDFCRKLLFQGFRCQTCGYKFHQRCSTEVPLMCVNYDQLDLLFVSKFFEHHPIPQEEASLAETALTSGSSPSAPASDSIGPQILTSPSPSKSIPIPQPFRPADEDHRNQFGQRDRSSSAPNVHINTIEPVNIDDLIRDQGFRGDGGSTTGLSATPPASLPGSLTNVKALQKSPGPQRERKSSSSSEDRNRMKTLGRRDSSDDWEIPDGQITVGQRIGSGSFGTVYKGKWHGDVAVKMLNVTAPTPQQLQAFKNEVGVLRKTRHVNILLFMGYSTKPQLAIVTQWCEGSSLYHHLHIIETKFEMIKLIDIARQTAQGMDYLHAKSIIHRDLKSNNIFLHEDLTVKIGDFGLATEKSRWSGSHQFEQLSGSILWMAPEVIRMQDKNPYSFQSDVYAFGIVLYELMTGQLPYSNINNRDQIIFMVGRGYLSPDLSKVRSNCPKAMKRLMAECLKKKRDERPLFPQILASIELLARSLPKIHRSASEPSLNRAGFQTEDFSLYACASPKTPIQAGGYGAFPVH

For the compound `NCCCNC(=O)c1ccc(Nc2ncc3cc(-c4ccncc4)ccc3n2)cc1` [Example 62, N-(3-Aminopropyl)-4-[(6-pyridin-4-ylquinazolin-2-yl)amino]benzamide], the midpoint of inhibition under setting [1], the IC50, lay at 93 nM.

On to `CC(c1ccc(Nc2ncc3cc(-c4ccncc4)ccc3n2)cc1)N(C)CCO` (stereo not drawn) [Example 134], for which, under setting [1], half-maximal inhibition (IC50) required 35 nM.

Take `Cc1cc(Nc2ncc3cc(-c4ccncc4)ccc3n2)ccc1C(=O)N(C)C` [Example 50]: half-maximal inhibition (IC50) required 150 nM.
